The values that follow come from patent US9840513B2 (AbbVie S.à.r.l., priority 2015, dated 2017).

The term EC50 denotes the midpoint of the concentration-response curve. A high value points to weaker potency.

In the assay the target is T1, F508delCFTR cell surface expression in CFBE41o-F508delCFTR-HRP cells (Homo sapiens, UniProt P13569, DEL508-508).
T1 construct: fused on or other part: Horseradish peroxidase (HRP) reporter inserted in the fourth exofacial (extracellular) loop of CFTR; expression is doxycycline-inducible
T1 sequence (P13569 with tags, fused parts or gaps DEL508-508 limits assumed): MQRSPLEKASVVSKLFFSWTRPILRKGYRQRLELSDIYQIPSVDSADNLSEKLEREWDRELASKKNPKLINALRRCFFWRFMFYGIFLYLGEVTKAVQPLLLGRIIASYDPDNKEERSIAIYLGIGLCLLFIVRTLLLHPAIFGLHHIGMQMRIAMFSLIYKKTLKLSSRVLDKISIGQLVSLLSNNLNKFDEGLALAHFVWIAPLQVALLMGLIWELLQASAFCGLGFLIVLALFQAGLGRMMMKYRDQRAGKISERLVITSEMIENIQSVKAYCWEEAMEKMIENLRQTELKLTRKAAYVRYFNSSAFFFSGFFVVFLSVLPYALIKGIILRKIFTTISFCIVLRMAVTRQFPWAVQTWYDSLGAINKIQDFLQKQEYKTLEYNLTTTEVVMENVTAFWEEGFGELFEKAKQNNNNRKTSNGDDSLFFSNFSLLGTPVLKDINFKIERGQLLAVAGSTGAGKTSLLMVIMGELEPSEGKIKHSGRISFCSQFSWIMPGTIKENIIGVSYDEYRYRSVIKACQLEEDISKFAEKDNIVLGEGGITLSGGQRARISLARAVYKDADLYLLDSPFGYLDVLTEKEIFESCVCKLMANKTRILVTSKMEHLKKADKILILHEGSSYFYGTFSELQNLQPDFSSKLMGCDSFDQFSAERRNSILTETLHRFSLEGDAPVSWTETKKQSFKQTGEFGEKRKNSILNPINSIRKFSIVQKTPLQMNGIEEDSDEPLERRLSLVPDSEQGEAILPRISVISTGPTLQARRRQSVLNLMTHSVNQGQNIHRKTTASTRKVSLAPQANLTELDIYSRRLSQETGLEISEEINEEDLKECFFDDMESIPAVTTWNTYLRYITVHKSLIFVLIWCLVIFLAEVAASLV
T1 sequence (P13569 919-1480 limits assumed, stated change not applied): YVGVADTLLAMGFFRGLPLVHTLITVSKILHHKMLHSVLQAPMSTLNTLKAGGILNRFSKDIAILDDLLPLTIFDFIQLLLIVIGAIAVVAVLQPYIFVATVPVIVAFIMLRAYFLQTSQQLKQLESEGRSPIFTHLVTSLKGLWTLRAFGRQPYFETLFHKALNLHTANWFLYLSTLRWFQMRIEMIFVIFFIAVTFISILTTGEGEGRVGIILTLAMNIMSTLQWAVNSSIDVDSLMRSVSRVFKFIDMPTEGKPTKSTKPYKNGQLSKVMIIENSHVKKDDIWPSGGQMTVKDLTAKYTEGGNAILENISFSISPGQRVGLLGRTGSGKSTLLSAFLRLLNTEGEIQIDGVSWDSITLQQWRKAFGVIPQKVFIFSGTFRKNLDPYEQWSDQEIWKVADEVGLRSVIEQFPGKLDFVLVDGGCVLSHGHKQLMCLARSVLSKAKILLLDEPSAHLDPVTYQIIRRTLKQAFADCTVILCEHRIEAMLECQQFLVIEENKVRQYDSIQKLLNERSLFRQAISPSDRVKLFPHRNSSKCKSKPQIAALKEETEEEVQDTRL
The experiment in a line: Cell Surface Expression-Horse Radish Peroxidase (CSE-HRP) Assay. As to conditions: for EC50: CFBE41o-F508delCFTR-HRP cells, 18-24 hours at 33° C., 8-point curve, highest concentration 20 μM; for Maximum % activity (%): maximum at any tested concentration, normalized to on-plate positive control (3 μM). Format: cell-based. The source says: Cell Surface Expression-Horse Radish Peroxidase (CSE-HRP) Assay:
A cellular assay for measuring the F508delCFTR cell surface expression after correction with test compounds was developed in human lung derived epithelial cell line (CFBE41o-) (Veit G et al, (2012) Mol Biol Cell. 23(21): 4188-4202). This was achieved by expressing the F508delCFTR mutation along with a horseradish peroxidase (HRP) in the fourth exofacial loop and then measuring the HRP activity using luminescence readout from these cells, CFBE41o-F508delCFTR-HRP, that were incubated overnight with the test corrector compounds. Briefly, for this primary assay, the CFBE41o-F508delCFTR-HRP cells were plated in 384-well plates (Greiner Bio-one; Cat 781080) at 4,000 cells/well along with 0.5 μg/mL doxycycline to induce the F508delCFTR-HRP expression and further incubated at 37° C., 5% CO2 for 72 hours. The test compounds were then added at the required concentrations and further incubated for 18-24 hours at 33° C. The highest concentration tested was 20 μM with an 8-point concentration response curve using a 3-fold dilution. Three replicate plates were run to determine one EC50. All plates contained negative controls (dimethyl sulfoxide, DMSO) and positive controls (3 μM of 3-[(2R,4R)-4-({[1-(2,2-difluoro-1,3-benzodioxol-5-yl)cyclopropyl]carbonyl}amino)-7-methoxy-3,4-dihydro-2H-chromen-2-yl]benzoic acid) as well as on-plate concentration response of the positive control. Post incubation, the plates were washed 5× times with Dulbecco's phosphate buffered saline (DPBS), followed by the addition of the HRP substrate, luminol (50 μL), and measuring the HRP activity using luminescence readout on EnVision® Multilabel Plate Reader (Perkin Elmer; product number 2104-0010). The raw counts from the experiment are analyzed using Accelrys® Assay Explorer v3.3.
Z′ greater than 0.5 was used as passing quality control criteria for the plates.
The Z′ is defined as: 1−[3*SDPositive Control+3*SDNegative Control/Absolute(MeanPositive Control−MeanNegative Control)] wherein “SD” is standard deviation.
The % activity measured at each of the 8 test concentrations of the test compound was normalized to the on-plate positive control using the following formula: % activity=[(test compound response DMSO response)/(positive control response DMSO response)]*100
The maximum % activity achieved for the test compound at any tested concentration is presented in Table 1 along with the EC50 calculated using the following general sigmoidal curve with variable Hill slope equation (described as Model 42 in the Accelrys® Assay Explorer v3.3 software): y=(a−d)/(1+(x/c)^b)+d
General sigmoidal curve with concentration, response, top, bottom, EC50 and Hill slope.
This model describes a sigmoidal curve with an adjustable baseline, a. The equation can be used to fit curves where response is either increasing or decreasing with respect to the independent variable, “x”.
“x” is a concentration of drug under test.
“a” is the maximum response, and “d” is the minimum response
“c” is the inflection point (EC50) for the curve. That is, “y” is halfway between the lower and upper asymptotes when x=c.
“b” is the slope-factor or Hill coefficient. The sign of b is positive when the response increases with increasing dose and is negative when the response decreases with increasing dose (inhibition).

On to `COC(=O)c1cccc([C@H]2C[C@@H](NC(=O)C3(C)COc4cc5c(cc43)OC(F)(F)O5)c3ccc(OC)cc3O2)c1` (stereo partly drawn) [Example 10, methyl 3-{(2R,4R)-4-[(2,2-difluoro-7-methyl-6,7-dihydro-2H-furo[2,3-f][1,3]benzodioxole-7-carbonyl)amino]-7-methoxy-3,4-dihydro-2H-1-benzopyran-2-yl}benzoate], for which the concentration for a half-maximal effect (EC50) was determined as 410 nM and the “Maximum % activity (%)” value is given as 121%.
As for `COC(=O)c1cccc([C@H]2C[C@@H](NC(=O)[C@]3(C)COc4cc5c(cc43)OC(F)(F)O5)c3ccc(OC)cc3O2)c1` [Example 12], the concentration giving a half-maximal response (EC50) was greater than 20000 nM and the “Maximum % activity (%)” value came to 14%.
`COc1ccc2c(c1)O[C@@H](c1cccc(C(=O)O)c1)C[C@H]2NC(=O)[C@]1(C)COc2cc3c(cc21)OC(F)(F)O3` [Example 13, 3-[(2R,4R)-4-{[(7S)-2,2-difluoro-7-methyl-6,7-dihydro-2H-furo[2,3-f][1,3]benzodioxole-7-carbonyl]amino}-7-methoxy-3,4-dihydro-2H-1-benzopyran-2-yl]benzoic acid]: the 50% effective concentration (EC50) was 8810 nM and the “Maximum % activity (%)” value was determined as 72%.
With `COc1ccc2c(c1)O[C@@H](c1cccc(C(=O)O)c1)C[C@H]2NC(=O)[C@@]1(C)COc2cc3c(cc21)OC(F)(F)O3` [Example 14, 3-[(2R,4R)-4-{[(7R)-2,2-difluoro-7-methyl-6,7-dihydro-2H-furo[2,3-f][1,3]benzodioxole-7-carbonyl]amino}-7-methoxy-3,4-dihydro-2H-1-benzopyran-2-yl]benzoic acid], the EC50 turned out to be 380 nM and the “Maximum % activity (%)” value worked out at 187%.
Consider `COC(=O)c1ccc([C@H]2C[C@@H](NC(=O)C3(C)COc4cc5c(cc43)OC(F)(F)O5)c3ccc(OC)cc3O2)cc1` (stereo partly drawn) [Example 15, methyl 4-{(2R,4R)-4-[(2,2-difluoro-7-methyl-6,7-dihydro-2H-furo[2,3-f][1,3]benzodioxole-7-carbonyl)amino]-7-methoxy-3,4-dihydro-2H-1-benzopyran-2-yl}benzoate], for which the EC50 was 150 nM and the “Maximum % activity (%)” value was found to be 143%.
For `COc1ccc2c(c1)O[C@@H](c1ccc(C(=O)O)cc1)C[C@H]2NC(=O)C1(C)COc2cc3c(cc21)OC(F)(F)O3` (stereo partly drawn) [Example 16, 4-{(2R,4R)-4-[(2,2-difluoro-7-methyl-6,7-dihydro-2H-furo[2,3-f][1,3]benzodioxole-7-carbonyl)amino]-7-methoxy-3,4-dihydro-2H-1-benzopyran-2-yl}benzoic acid] the same measures were 60 nM and 150%.
As to `COC(=O)c1ccc([C@H]2C[C@@H](NC(=O)[C@]3(C)COc4cc5c(cc43)OC(F)(F)O5)c3ccc(OC)cc3O2)cc1` [Example 17, methyl 4-[(2R,4R)-4-{[(7S)-2,2-difluoro-7-methyl-6,7-dihydro-2H-furo[2,3-f][1,3]benzodioxole-7-carbonyl]amino}-7-methoxy-3,4-dihydro-2H-1-benzopyran-2-yl]benzoate], the EC50 came to 8770 nM and the “Maximum % activity (%)” value is 31%.
On to `COc1ccc2c(c1)O[C@@H](c1ccc(C(=O)O)cc1)C[C@H]2NC(=O)[C@]1(C)COc2cc3c(cc21)OC(F)(F)O3` [Example 18, 4-[(2R,4R)-4-{[(7S)-2,2-difluoro-7-methyl-6,7-dihydro-2H-furo[2,3-f][1,3]benzodioxole-7-carbonyl]amino}-7-methoxy-3,4-dihydro-2H-1-benzopyran-2-yl]benzoic acid], for which the concentration for a half-maximal effect (EC50) amounted to 5750 nM and the “Maximum % activity (%)” value is recorded as 91%.
With `COC(=O)c1ccc([C@H]2C[C@@H](NC(=O)[C@@]3(C)COc4cc5c(cc43)OC(F)(F)O5)c3ccc(OC)cc3O2)cc1` [Example 19, methyl 4-[(2R,4R)-4-{[(7R)-2,2-difluoro-7-methyl-6,7-dihydro-2H-furo[2,3-f][1,3]benzodioxole-7-carbonyl]amino}-7-methoxy-3,4-dihydro-2H-1-benzopyran-2-yl]benzoate], the EC50 was found to be 80 nM and the “Maximum % activity (%)” value is 130%.
As to `C[C@]1(C(=O)N[C@@H]2C[C@H](c3cccc(C(=O)O)c3)Oc3ccccc32)COc2cc3c(cc21)OC(F)(F)O3` [Example 22, 3-[(2R,4R)-4-{[(7R)-2,2-difluoro-7-methyl-6,7-dihydro-2H-furo[2,3-f][1,3]benzodioxole-7-carbonyl]amino}-3,4-dihydro-2H-1-benzopyran-2-yl]benzoic acid], the 50% effective concentration (EC50) stood at 640 nM and the “Maximum % activity (%)” value turned out to be 156%.
With `C[C@]1(C(=O)N[C@@H]2C[C@H](c3ccc(C(=O)O)cc3)Oc3ccccc32)COc2cc3c(cc21)OC(F)(F)O3` [Example 23, 4-[(2R,4R)-4-{[(7R)-2,2-difluoro-7-methyl-6,7-dihydro-2H-furo[2,3-f][1,3]benzodioxole-7-carbonyl]amino}-3,4-dihydro-2H-1-benzopyran-2-yl]benzoic acid], the 50% effective concentration (EC50) was determined as 180 nM and the “Maximum % activity (%)” value was found to be 127%.
For the molecule `CC1(C)OC[C@@H](Cn2nc(-c3ccccc3)cc(NC(=O)C3(C)COc4cc5c(cc43)OC(F)(F)O5)c2=O)O1` (stereo partly drawn) [Example 24, N-(2-{[(4R)-2,2-dimethyl-1,3-dioxolan-4-yl]methyl}-3-oxo-6-phenyl-2,3-dihydropyridazin-4-yl)-2,2-difluoro-7-methyl-6,7-dihydro-2H-furo[2,3-f][1,3]benzodioxole-7-carboxamide], the EC50 turned out to be 1180 nM and the “Maximum % activity (%)” value is listed as 70%.
Regarding `CC1(C)OC[C@@H](Cn2nc(-c3ccccc3)cc(NC(=O)[C@@]3(C)COc4cc5c(cc43)OC(F)(F)O5)c2=O)O1` [Example 26, (7R)—N-(2-{[(4R)-2,2-dimethyl-1,3-dioxolan-4-yl]methyl}-3-oxo-6-phenyl-2,3-dihydropyridazin-4-yl)-2,2-difluoro-7-methyl-6,7-dihydro-2H-furo[2,3-f][1,3]benzodioxole-7-carboxamide], the half-maximal effective concentration (EC50) came out at 980 nM and the “Maximum % activity (%)” value turned out to be 85%.
`COC(=O)c1cccc(-n2nc(C3CC3)cc(NC(=O)[C@@]3(C)COc4cc5c(cc43)OC(F)(F)O5)c2=O)c1` [Example 28, methyl 3-[3-cyclopropyl-5-{[(7R)-2,2-difluoro-7-methyl-6,7-dihydro-2H-furo[2,3-f][1,3]benzodioxole-7-carbonyl]amino}-6-oxopyridazin-1(6H)-yl]benzoate]: the EC50 is 1420 nM and the “Maximum % activity (%)” value is given as 112%.
As for `C[C@]1(C(=O)Nc2cc(C3CC3)nn(-c3cccc(C(=O)O)c3)c2=O)COc2cc3c(cc21)OC(F)(F)O3` [Example 29, 3-[3-cyclopropyl-5-{[(7R)-2,2-difluoro-7-methyl-6,7-dihydro-2H-furo[2,3-f][1,3]benzodioxole-7-carbonyl]amino}-6-oxopyridazin-1(6H)-yl]benzoic acid], a half-maximal effect (EC50) was put at 1070 nM and the “Maximum % activity (%)” value is 155%.
As to `C[C@@]1(C(=O)Nc2cc(C3CC3)nn(-c3ccc(C(=O)O)cc3)c2=O)COc2cc3c(cc21)OC(F)(F)O3` [Example 31, 4-[3-cyclopropyl-5-{[(7S)-2,2-difluoro-7-methyl-6,7-dihydro-2H-furo[2,3-f][1,3]benzodioxole-7-carbonyl]amino}-6-oxopyridazin-1(6H)-yl]benzoic acid], the EC50 is greater than 20000 nM and the “Maximum % activity (%)” value worked out at 7%.
As for `COC(=O)c1cccc(-n2nc(C3CC3)cc(NC(=O)C3(C)COc4cc5c(cc43)OC(F)(F)O5)c2=O)c1` (stereo not shown) [Example 40, methyl 3-{3-cyclopropyl-5-[(2,2-difluoro-7-methyl-6,7-dihydro-2H-furo[2,3-f][1,3]benzodioxole-7-carbonyl)amino]-6-oxopyridazin-1(6H)-yl}benzoate], the EC50 amounted to 210 nM and the “Maximum % activity (%)” value stood at 132%.
